Source: US12103920B2, “Cereblon binding compounds, compositions thereof, and methods of treatment therewith” (Celgene Corporation, priority 2020, dated 2024)
Counter-ions that a name gives are not always drawn.

Target: T1, AR protein in VCaP cells (Homo sapiens, UniProt P10275)
T1 construct: endogenous in cells; host or cells: VCaP cells
T1 sequence (P10275 1-920): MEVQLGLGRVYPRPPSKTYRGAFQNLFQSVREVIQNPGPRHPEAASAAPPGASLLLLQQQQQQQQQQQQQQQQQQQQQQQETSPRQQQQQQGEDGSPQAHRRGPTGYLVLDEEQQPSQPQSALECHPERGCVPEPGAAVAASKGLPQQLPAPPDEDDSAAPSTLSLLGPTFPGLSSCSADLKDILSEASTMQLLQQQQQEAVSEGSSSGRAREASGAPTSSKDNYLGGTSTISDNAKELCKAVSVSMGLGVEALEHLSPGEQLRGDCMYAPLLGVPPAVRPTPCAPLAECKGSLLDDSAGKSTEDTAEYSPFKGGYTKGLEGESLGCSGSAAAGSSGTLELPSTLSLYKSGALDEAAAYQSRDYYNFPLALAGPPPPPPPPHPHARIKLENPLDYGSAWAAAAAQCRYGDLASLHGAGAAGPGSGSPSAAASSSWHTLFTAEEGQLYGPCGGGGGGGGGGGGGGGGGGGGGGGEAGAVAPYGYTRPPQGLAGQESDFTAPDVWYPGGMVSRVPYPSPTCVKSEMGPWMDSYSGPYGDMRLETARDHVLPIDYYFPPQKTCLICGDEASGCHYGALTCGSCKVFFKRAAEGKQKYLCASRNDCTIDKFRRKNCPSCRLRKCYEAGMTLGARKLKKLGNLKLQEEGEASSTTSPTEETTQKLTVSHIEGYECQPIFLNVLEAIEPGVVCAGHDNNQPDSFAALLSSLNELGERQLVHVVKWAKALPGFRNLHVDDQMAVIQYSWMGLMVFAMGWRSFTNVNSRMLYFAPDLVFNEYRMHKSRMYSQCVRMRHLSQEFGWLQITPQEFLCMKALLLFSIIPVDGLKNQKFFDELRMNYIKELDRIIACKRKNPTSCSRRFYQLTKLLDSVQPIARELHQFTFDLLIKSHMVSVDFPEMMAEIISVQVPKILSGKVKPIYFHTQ
Assay: VCAP AR Degradation Assay
Format: cell-based
Conditions: 24 h, AR ELISA; for DC50: concentration at 50% of DMSO control (50% AR degradation); for Y: lowest measured AR level normalized to DMSO control
Outline: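 VCaP cells in DMEM with 8% FBS were treated 24 h at 37° C with a 10-point 1:3 series (top final 5 μM; 0.1% DMSO control). AR in lysates was measured by sandwich ELISA, normalized to DMSO as percent of control; DC50, EC50 and Ymin came from a four-parameter logistic fit.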

DC50 [nM] | Y | Structure (SMILES)
≤ 5 | * (0<Y≤15%) | CC1(C)C(=O)N(c2cnc(C#N)c(C(F)(F)F)c2)C(=S)N1[C@H]1CC[C@H](OCCN2CCN(CC(=O)Nc3cccc(N[C@H]4CCC(=O)NC4=O)c3)[C@@H](C(F)(F)F)C2)CC1 [Cmpd 41, 2-((R)-4-(2-(((trans)-4-(3-(6-Cyano-5-(trifluoromethyl)pyridin-3-yl)-5,5-dimethyl-4-oxo-2-thioxoimidazolidin-1-yl)cyclohexyl)oxy)ethyl)-2-(trifluoromethyl)piperazin-1-yl)-N-(3-(((S)-2,6-dioxopiperidin-3-yl)amino)phenyl)acetamide hydrochloride]
≤ 5 | * (0<Y≤15%) | CC1(C)C(=O)N(c2cnc(C#N)c(C(F)(F)F)c2)C(=S)N1[C@H]1CC[C@H](OCCN2CCN(CC(=O)Nc3cccc(N[C@@H]4CCC(=O)NC4=O)c3)[C@@H](C(F)(F)F)C2)CC1 [Cmpd 42, 2-((R)-4-(2-(((trans)-4-(3-(6-Cyano-5-(trifluoromethyl)pyridin-3-yl)-5,5-dimethyl-4-oxo-2-thioxoimidazolidin-1-yl)cyclohexyl)oxy)ethyl)-2-(trifluoromethyl)piperazin-1-yl)-N-(3-(((R)-2,6-dioxopiperidin-3-yl)amino)phenyl)acetamide hydrochloride]
≤ 5 | ** (15%<Y≤20%) | C[C@@H]1C[C@H](OCCO[C@H]2CC[C@H](N3C(=S)N(c4cnc(C#N)c(C(F)(F)F)c4)C(=O)C3(C)C)CC2)C[C@H](C)N1CC(=O)Nc1cccc(NC2CCC(=O)NC2=O)c1 (stereo partly drawn) [Cmpd 45, 2-((2R,4r,6S)-4-(2-(((trans)-4-(3-(6-Cyano-5-(trifluoromethyl)pyridin-3-yl)-5,5-dimethyl-4-oxo-2-thioxoimidazolidin-1-yl)cyclohexyl)oxy)ethoxy)-2,6-dimethylpiperidin-1-yl)-N-(3-((2,6-dioxopiperidin-3-yl)amino)phenyl)acetamide]
≤ 5 | * (0<Y≤15%) | CC1(C)C(=O)N(c2cnc(C#N)c(C(F)(F)F)c2)C(=S)N1[C@H]1CC[C@H](OCCC2CCN(CC(=O)Nc3cccc(NC4CCC(=O)NC4=O)c3)CC2(F)F)CC1 (stereo partly drawn) [Cmpd 46, 2-(4-(2-(((trans)-4-(3-(6-Cyano-5-(trifluoromethyl)pyridin-3-yl)-5,5-dimethyl-4-oxo-2-thioxoimidazolidin-1-yl)cyclohexyl)oxy)ethyl)-3,3-difluoropiperidin-1-yl)-N-(3-((2,6-dioxopiperidin-3-yl)amino)phenyl)acetamide hydrochloride]
< 1000 | * (0<Y≤15%) | C[C@@H]1CN(CCO[C@H]2CC[C@H](N3C(=S)N(c4cnc(C#N)c(C(F)(F)F)c4)C(=O)C3(C)C)CC2)C[C@H](C)N1CC(=O)Nc1cccc(N[C@H]2CCC(=O)NC2=O)c1 [Cmpd 47, 2-((2R,6S)-4-(2-(((trans)-4-(3-(6-Cyano-5-(trifluoromethyl)pyridin-3-yl)-5,5-dimethyl-4-oxo-2-thioxoimidazolidin-1-yl)cyclohexyl)oxy)ethyl)-2,6-dimethylpiperazin-1-yl)-N-(3-(((S)-2,6-dioxopiperidin-3-yl)amino)phenyl)acetamide]
< 1000 | * (0<Y≤15%) | C[C@@H]1CN(CCO[C@H]2CC[C@H](N3C(=S)N(c4cnc(C#N)c(C(F)(F)F)c4)C(=O)C3(C)C)CC2)C[C@H](C)N1CC(=O)Nc1cccc(N[C@@H]2CCC(=O)NC2=O)c1 [Cmpd 48, 2-((2R,6S)-4-(2-(((trans)-4-(3-(6-Cyano-5-(trifluoromethyl)pyridin-3-yl)-5,5-dimethyl-4-oxo-2-thioxoimidazolidin-1-yl)cyclohexyl)oxy)ethyl)-2,6-dimethylpiperazin-1-yl)-N-(3-(((R)-2,6-dioxopiperidin-3-yl)amino)phenyl)acetamide]

Structure (SMILES) | DC50 [nM] | Y
C[C@@H]1CN(CCC[C@H]2CC[C@H](N3C(=S)N(c4ccc(C#N)c(C(F)(F)F)c4)C(=O)C3(C)C)CC2)C[C@H](C)N1CC(=O)Nc1cc(NC2CCC(=O)NC2=O)ccc1F (stereo partly drawn) [Cmpd 39, 2-((2R,6S)-4-(3-((trans)-4-(3-(4-Cyano-3-(trifluoromethyl)phenyl)-5,5-dimethyl-4-oxo-2-thioxoimidazolidin-1-yl)cyclohexyl)propyl)-2,6-dimethylpiperazin-1-yl)-N-(5-((2,6-dioxopiperidin-3-yl)amino)-2-fluorophenyl)acetamide] | 10 to 100 | *** (25%<Y<50%)
CC1(C)C(=O)N(c2ccc(C#N)c(C(F)(F)F)c2)C(=S)N1[C@H]1CC[C@H](OCCN2CCN(CC(=O)Nc3cccc(NC4CCC(=O)NC4=O)c3)[C@H](C(F)(F)F)C2)CC1 (stereo partly drawn) [Cmpd 40, 2-((S)-4-(2-(((trans)-4-(3-(4-Cyano-3-(trifluoromethyl)phenyl)-5,5-dimethyl-4-oxo-2-thioxoimidazolidin-1-yl)cyclohexyl)oxy)ethyl)-2-(trifluoromethyl)piperazin-1-yl)-N-(3-((2,6-dioxopiperidin-3-yl)amino)phenyl)acetamide] | 10 to 100 | *** (25%<Y<50%)
C[C@@H]1C[C@H](OCCO[C@H]2CC[C@H](N3C(=S)N(c4ccc(C#N)c(C(F)(F)F)c4)C(=O)C3(C)C)CC2)C[C@H](C)N1CC(=O)Nc1cccc(NC2CCC(=O)NC2=O)c1 (stereo partly drawn) [Cmpd 43, 2-((2R,4r,6S)-4-(2-(((trans)-4-(3-(4-Cyano-3-(trifluoromethyl)phenyl)-5,5-dimethyl-4-oxo-2-thioxoimidazolidin-1-yl)cyclohexyl)oxy)ethoxy)-2,6-dimethylpiperidin-1-yl)-N-(3-((2,6-dioxopiperidin-3-yl)amino)phenyl)acetamide] | 5 to 10 | *** (25%<Y<50%)
CC1(C)C(=O)N(c2ccc(C#N)c(C(F)(F)F)c2)C(=S)N1[C@H]1CC[C@H](OCCC2CCN(CC(=O)Nc3cccc(NC4CCC(=O)NC4=O)c3)CC2(F)F)CC1 (stereo partly drawn) [Cmpd 44, 2-(4-(2-(((trans)-4-(3-(4-Cyano-3-(trifluoromethyl)phenyl)-5,5-dimethyl-4-oxo-2-thioxoimidazolidin-1-yl)cyclohexyl)oxy)ethyl)-3,3-difluoropiperidin-1-yl)-N-(3-((2,6-dioxopiperidin-3-yl)amino)phenyl)acetamide] | 5 to 10 | * (0<Y≤15%)
